US20250296959A1, “B7-H3 TARGETING PEPTIDES AND CONSTRUCTS THEREOF” (Mariana Oncology Inc., priority 2024, published 2025)
Where two headings read alike, the source gives them in different places. Starred links: 1 amine or outer side, 2 acyl side, 3 side chain; linkers in the order of their positions; H or OH if unused. Positions of bridges follow the written chain, without caps; N, C: chain ends. Non-standard residues stand in square brackets, D forms with d. Residues, ends and D or L forms follow the SMILES beside them. Groups on a side chain read outwards from the residue. Primed or numbered codes have the meaning given here. *: point of attachment. Ala(1-CH2CO2H-4-piperidyl) = N[C@@H](CC1CCN(CC(=O)O)CC1)C(=O)O; Ala(piperidin-4-yl) = O=C([C@H](CC1CCN([*:3])CC1)N[*:1])[*:2]; DOTA = O=C(O)CN1CCN(CC(=O)O)CCN(CC(=O)*)CCN(CC(=O)O)CC1; PipAla = piperidinyl-alanine residue (as named); Phe(4-COOH) = N[C@@H](Cc1ccc(C(=O)O)cc1)C(=O)O; Trp(5-F) = N[C@@H](Cc1c[nH]c2ccc(F)cc12)C(=O)O; X1 = C[C@@H](c1ccccc1)[C@H](N[*:1])C(=O)[*:2]; PEG4′ = 4x 3-(2-aminoethoxy)propanoic acid; γGlu = O=C(O)[C@H](CCC(=O)[*:2])N[*:1]; 1Nal = N[C@@H](Cc1cccc2ccccc12)C(=O)O; Ala(4-THP) = N[C@@H](CC1CCOCC1)C(=O)O; Val(3-OH) = CC(C)(O)[C@H](N)C(=O)O; hCha = N[C@@H](CCC1CCCCC1)C(=O)O; 4Pal = N[C@@H](Cc1ccncc1)C(=O)O; PEG4 = NCCOCCOCCOCCOCCC(=O)O; Tle = CC(C)(C)[C@H](N)C(=O)O; hLeu = CC(C)CC[C@H](N)C(=O)O; Nle = CCCC[C@H](N)C(=O)O; PEG8′ = not defined here

What was measured:
[1] = tested on: Calu-6 cell line; assay: Net internalization of [177Lu]Lu-labeled peptide in Calu-6 cells; assay type: cell-based, Human; details: 1 hour, 37° C., glycine pH 2.5 acid wash
Procedure, shortened: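 Peptide conjugate labeled with [177Lu]LuCl3 at pH ~5, 80 °C, 17–20 min, and purity checked by RP-HPLC. B7-H3-expressing human Calu-6 lung cancer cells at 5 million cells/mL in 1% PBSA. Internalized fraction: counts left after two 3 min 50 mM glycine pH 2.5 washes and NaOH lysis, gamma counted against bound fraction.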

[2] = target: T1, 2Ig B7-H3 (Homo sapiens, UniProt Q5ZPR3); assay: SPR binding affinity to 2Ig B7-H3
T1 sequence (Q5ZPR3 29-316 isoform Q5ZPR3-2 limits assumed): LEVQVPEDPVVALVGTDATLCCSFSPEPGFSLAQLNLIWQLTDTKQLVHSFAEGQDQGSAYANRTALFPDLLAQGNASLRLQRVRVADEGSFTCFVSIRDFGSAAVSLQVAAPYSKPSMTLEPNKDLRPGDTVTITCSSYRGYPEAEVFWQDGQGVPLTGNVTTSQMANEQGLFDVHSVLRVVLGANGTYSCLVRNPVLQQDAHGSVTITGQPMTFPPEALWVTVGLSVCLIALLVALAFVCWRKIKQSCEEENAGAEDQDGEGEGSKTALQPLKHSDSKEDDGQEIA

[3] = target: T2, human 4lg B7-H3 (Homo sapiens, UniProt Q5ZPR3); assay: Affinity determination by surface plasmon resonance (SPR) to 4Ig B7-H3
T2 sequence (Q5ZPR3 29-534): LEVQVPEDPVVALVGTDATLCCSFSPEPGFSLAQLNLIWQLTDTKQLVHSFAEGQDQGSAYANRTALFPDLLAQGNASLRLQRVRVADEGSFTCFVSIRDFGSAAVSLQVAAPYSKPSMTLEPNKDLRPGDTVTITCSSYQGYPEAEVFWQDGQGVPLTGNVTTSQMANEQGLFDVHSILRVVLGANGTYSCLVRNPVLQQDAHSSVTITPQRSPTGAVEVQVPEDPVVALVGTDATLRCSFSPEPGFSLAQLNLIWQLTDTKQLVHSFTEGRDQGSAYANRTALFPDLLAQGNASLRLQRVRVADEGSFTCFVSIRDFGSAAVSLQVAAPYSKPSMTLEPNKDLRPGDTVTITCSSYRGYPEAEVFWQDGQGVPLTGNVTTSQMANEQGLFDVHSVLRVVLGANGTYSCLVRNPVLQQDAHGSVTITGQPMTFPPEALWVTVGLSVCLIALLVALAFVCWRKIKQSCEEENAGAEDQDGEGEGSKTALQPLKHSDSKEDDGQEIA

[4] = tested on: Calu-6 cell line; assay: Cell associated (bound) fraction of [177Lu]Lu-labeled peptide in Calu-6 cells; assay type: cell-based, Human; details: 1 hour, 37° C.
Procedure, shortened: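 Peptide conjugate was labelled with [177Lu]LuCl3 in ammonium acetate pH ~5 at 80 °C for 17-20 min, with purity checked by RP-HPLC. Calu-6 suspensions (5 million cells/mL in 1% PBSA) were incubated with 0.8 μCi for 1 h at 37 °C. Cell pellets were gamma-counted after two cold PBS/BSA washes, giving the bound fraction against the unbound supernatant plus washes.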

[5] = tested on: Calu-6 tumors; assay: Ex vivo biodistribution of radiolabeled peptides in nude mice bearing Calu-6 tumors; details: [177Lu]Lu labeling, 24 h post-injection
Protocol: Mice were euthanized at pre-determined time points and selected tissues were resected and collected into pre-weighed tubes. The tubes were then reweighed post resection, the difference giving the weight of each tissue. Radioactivity in each tissue was measured using a gamma counter. Counts were decay corrected to the time of injection and percentage of injected activity per gram (% IA/g) was calculated for each tissue based on the injected activity into each individual mouse. Injected activity was converted to counts based on the sensitivity of the gamma counter. The counts in tissue were then converted to the percentage of injected activity and this was divided by the mass of tissue to give % IA/g.

[6] = target: T3, Biotinylated human 4Ig B7-H3 (human, UniProt Q5ZPR3 29-461, limits assumed, biotinylated (site not stated)); assay: SPR 37C; C = 10<KD<=100 nM
T3 construct: Protein captured on the SA chip for SPR; also called 4lg-B7-H3; B7-H3 isoform 4Ig
T3 sequence: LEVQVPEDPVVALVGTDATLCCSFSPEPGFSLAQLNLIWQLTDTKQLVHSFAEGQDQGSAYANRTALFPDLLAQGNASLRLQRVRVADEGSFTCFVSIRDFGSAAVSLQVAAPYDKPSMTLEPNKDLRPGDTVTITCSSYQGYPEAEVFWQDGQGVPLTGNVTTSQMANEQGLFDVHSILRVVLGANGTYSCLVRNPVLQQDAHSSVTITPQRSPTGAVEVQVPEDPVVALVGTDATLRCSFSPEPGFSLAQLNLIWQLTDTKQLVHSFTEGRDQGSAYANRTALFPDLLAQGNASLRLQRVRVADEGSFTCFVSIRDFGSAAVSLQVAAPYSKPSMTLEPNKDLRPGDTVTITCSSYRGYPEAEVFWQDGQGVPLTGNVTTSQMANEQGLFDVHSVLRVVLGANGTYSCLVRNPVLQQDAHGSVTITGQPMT

[7] = target: T4, B7-H3 on Calu-6 cells (human, UniProt Q5ZPR3 29-534); assay: 177Lu-labelled peptide on Calu-6 cells, % cell associated fraction; B = 25<%<=50
T4 construct: whole, on cells
T4 sequence (looked up): T2 sequence (Q5ZPR3 29-534)

[8] = target: Biotinylated human 4Ig B7-H3 (human) (UniProt Q5ZPR3); assay: SPR 37C; A = KD<=1.0 nM
[9] = 37° C., read-out: 2Ig B7-H3_KD (nM) at 37° C.
[10] = SPR KD—37° C., 4Ig B7-H3, 37° C. flow cell temperature

Molecule: CC(=O)N[C@@H](CCC(C)C)C(=O)N[C@@H](Cc1ccc(O)cc1)C(=O)N[C@H]1CSSC[C@@H](C(=O)N[C@@H](Cc2c[nH]c3ccc(F)cc23)C(=O)N[C@@H](Cc2ccccc2)C(=O)N[C@H](C(=O)N[C@H](CO)C(N)=O)C(C)(C)O)NC(=O)[C@H](Cc2ccc(O)cc2)NC(=O)[C@H](C(C)C)NC(=O)[C@H](CC(=O)O)NC(=O)[C@H](CC2CCN(C(=O)CCOCCOCCOCCOCCNC(=O)CN3CCN(CC(=O)O)CCN(CC(=O)O)CCN(CC(=O)O)CC3)CC2)NC(=O)[C@H](CCCCN)NC(=O)CNC(=O)[C@H](C(C)(C)C)NC1=O [compound 408, Ac-hLeu-Y-C-Tbg-G-K-Pip(PEG4-DOTA)Ala-D-V-Y-C-5FW-F-hydroxyVal-dSer-CONH2] (Ac-[hLeu]YC[Tle]GK[Ala(piperidin-4-yl)]([PEG4-DOTA])DVYC[Trp(5-F)]F[Val(3-OH)][dS]-NH2; disulfide 3-11)
- % net internalization [1]: A (%≤25)
- Kd [2, 9]: 920 nM
- Kd [3, 10]: < 1 nM
- % cell associated fraction [4]: C (%>50)

Molecule: CC(=O)N[C@@H](CCC(C)C)C(=O)N[C@@H](Cc1ccc(O)cc1)C(=O)N[C@H]1CSSC[C@@H](C(=O)N[C@@H](Cc2c[nH]c3ccc(F)cc23)C(=O)N[C@@H](Cc2ccccc2)C(=O)N[C@H](C(=O)N[C@H](CCC(=O)O)C(N)=O)C(C)(C)O)NC(=O)[C@H](Cc2ccc(O)cc2)NC(=O)[C@H](C(C)C)NC(=O)[C@H](CC(=O)O)NC(=O)[C@H](CC2CCN(C(=O)CCOCCOCCOCCOCCNC(=O)CN3CCN(CC(=O)O)CCN(CC(=O)O)CCN(CC(=O)O)CC3)CC2)NC(=O)[C@H](CCCCN)NC(=O)CNC(=O)[C@H](C(C)(C)C)NC1=O [compound 410, Ac-hLeu-Y-C-Tbg-G-K-Pip(PEG4-DOTA)Ala-D-V-Y-C-5FW-F-hydroxyVal-dGlu-CONH2] (Ac-[hLeu]YC[Tle]GK[Ala(piperidin-4-yl)]([PEG4-DOTA])DVYC[Trp(5-F)]F[Val(3-OH)][dE]-NH2; disulfide 3-11)
- % net internalization [1]: A (%≤25)
- Kd [2, 9]: 820 nM
- Kd [3, 10]: < 1 nM
- % cell associated fraction [4]: B (25<%≤50)

Molecule: CC(=O)N[C@@H](CCC(C)C)C(=O)N[C@@H](Cc1ccc(O)cc1)C(=O)N[C@H]1CSSC[C@@H](C(=O)N[C@@H](Cc2c[nH]c3ccc(F)cc23)C(=O)N[C@H](C(=O)N[C@H](C(=O)N[C@H](CCC(=O)O)C(N)=O)C(C)(C)O)[C@@H](C)c2ccccc2)NC(=O)[C@H](Cc2ccc(O)cc2)NC(=O)[C@H](C(C)C)NC(=O)[C@H](CC(=O)O)NC(=O)[C@H](CC2CCN(C(=O)CCOCCOCCOCCOCCNC(=O)CN3CCN(CC(=O)O)CCN(CC(=O)O)CCN(CC(=O)O)CC3)CC2)NC(=O)[C@H](CC2CCN(CC(=O)O)CC2)NC(=O)CNC(=O)[C@H](C(C)(C)C)NC1=O [compound 496, Ac-hLeu-Y-C-Tbg-G-Pip(CH2COOH)Ala-Pip(PEG4-DOTA)Ala-D-V-Y-C-5FW-[(2S, 3S)beta-Me-Phe]-hydroxyVal-dGlu-CONH2] (Ac-[hLeu]YC[Tle]G[Ala(1-CH2CO2H-4-piperidyl)][Ala(piperidin-4-yl)]([PEG4-DOTA])DVYC[Trp(5-F)][X1][Val(3-OH)][dE]-NH2; disulfide 3-11)
- % net internalization [1]: A (%≤25)
- Kd [2]: 526 nM
- kidney uptake (% IA/g) [5]: C (0 < % IA/g ≤ 10 in kidney)
- tumor uptake (% IA/g) [5]: A (0 < % IA/g ≤ 5 in tumor)
- Kd [3]: < 1 nM
- % cell associated fraction [4]: B (25<%≤50)

Molecule: CC(=O)N[C@@H](CCC(C)C)C(=O)N[C@@H](Cc1ccc(O)cc1)C(=O)N[C@H]1CSSC[C@@H](C(=O)N[C@@H](Cc2c[nH]c3ccc(F)cc23)C(=O)N[C@H](C(=O)N[C@H](C(=O)N[C@H](C)C(=O)O)C(C)(C)O)[C@@H](C)c2ccccc2)NC(=O)[C@H](Cc2ccc(O)cc2)NC(=O)[C@H](C(C)C)NC(=O)[C@H](CC(=O)O)NC(=O)[C@H](CC2CCN(C(=O)CCOCCOCCOCCOCCNC(=O)CN3CCN(CC(=O)O)CCN(CC(=O)O)CCN(CC(=O)O)CC3)CC2)NC(=O)[C@H](CC2CCN(CC(=O)O)CC2)NC(=O)CNC(=O)[C@H](C(C)(C)C)NC1=O [compound 526, Ac-hLeu-Y-C-Tbg-G-Pip(CH2COOH)Ala-Pip(PEG4-DOTA)Ala-D-V-Y-C-5FW-[(2S, 3S)beta-Me-Phe]-hydroxyVal-dAla-COOH] (Ac-[hLeu]YC[Tle]G[Ala(1-CH2CO2H-4-piperidyl)][Ala(piperidin-4-yl)]([PEG4-DOTA])DVYC[Trp(5-F)][X1][Val(3-OH)][dA]-OH; disulfide 3-11)
- Kd [2]: 380 nM
- kidney uptake (% IA/g) [5]: D (% IA/g > 10 in kidney)
- tumor uptake (% IA/g) [5]: A (0 < % IA/g ≤ 5 in tumor)
- Kd [3]: < 1 nM

Molecule: {DOTA-PEG8′}-[Nle]YCVGKYDVYCWF-NH2 (disulfide 3-11) [Cpd 5]
- KD [6]: 10 to 100 nM

Molecule: Ac-[Nle]YCVGKYDVYCWFT-OH (disulfide 3-11) [Cpd 33]
- KD [6]: 10 to 100 nM

B1: Cpd 29 (peptide)
peptide: Ac-[Nle]YCVGKYDVYCWFE[dK](DOTA)-NH2
modifications: disulfide 3-11
SMILES: CCCC[C@H](NC(C)=O)C(=O)N[C@@H](Cc1ccc(O)cc1)C(=O)N[C@H]1CSSC[C@@H](C(=O)N[C@@H](Cc2c[nH]c3ccccc23)C(=O)N[C@@H](Cc2ccccc2)C(=O)N[C@@H](CCC(=O)O)C(=O)N[C@H](CCCCNC(=O)CN2CCN(CC(=O)O)CCN(CC(=O)O)CCN(CC(=O)O)CC2)C(N)=O)NC(=O)[C@H](Cc2ccc(O)cc2)NC(=O)[C@H](C(C)C)NC(=O)[C@H](CC(=O)O)NC(=O)[C@H](Cc2ccc(O)cc2)NC(=O)[C@H](CCCCN)NC(=O)CNC(=O)[C@H](C(C)C)NC1=O
- KD [6]: 10 to 100 nM

Molecule: Ac-[hLeu]YCIGK(DOTA)[Ala(piperidin-4-yl)]DVYC[Trp(5-F)]F[Val(3-OH)]-NH2 (disulfide 3-11) [Cpd 203]
- % cell associated fraction [7]: 25 to 50%

Molecule: Ac-[hLeu]YC[Tle]GK([γGlu-DOTA])[4Pal]DVYC[1Nal]FP-NH2 (disulfide 3-11) [Cpd 252]
- % cell associated fraction [7]: 25 to 50%

Molecule: Ac-[hLeu]YCIGK(DOTA)[4Pal]DVYC[Trp(5-F)]F[Val(3-OH)]-NH2 (disulfide 3-11) [Cpd 230]
- % cell associated fraction [7]: 25 to 50%

Molecule: Ac-[hCha]YC[Tle]G[PipAla]([PEG4′-DOTA])[Ala(4-THP)]DVYC[Trp(5-F)]F[Val(3-OH)][dA]-OH (disulfide 3-11 (inferred)) [Cpd 485]
- KD [8]: < 1 nM

Molecule: Ac-[hLeu]YC[Tle]G[Ala(piperidin-4-yl)][Phe(4-COOH)]DVYC[1Nal]FP[dK](DOTA)-NH2 (disulfide 3-11 (inferred)) [Cpd 314]
- KD [8]: < 1 nM
